# Measurements taken from patent publication US5981586A, “Methods for treating proliferative and inflammatory skin diseases” (priority 1998, dated 1999).
# Entries after “also recorded” stand apart in the source; their conditions may differ. Like-named read-outs stand apart in the source and are kept apart here.
# Assays:
# PPARγ [1] = details: cited from earlier work
# PPARγ [2] = details: cited from earlier work; remark: listed apart in the source
# human keratinocytes [3] = test: Proliferation of human keratinocytes by PMS/MTS (CellTiter 96 AQueous) assay; type: cell-based
# Text: Inhibition of proliferating human keratinocytes in culture have been utilized as a system for screening and identifying potential therapeutic agents such as vitamin D derivatives (Kitano et at., 1991) and retinoids (West et at., 1992), for the treatment of inflammatory, proliferative skin diseases (e.g., psoriasis vulgaris, acne vulgaris, hidradenitis suppurativa).
# Human keratinocytes were obtained from Clonetics (San Diego, California) and subcultured into a proprietary (Clonetics) medium optimized for cell growth and maintenance. Proliferation of keratinocytes was determined using MTS, 3-(4,5-dimethylthiazol-2-yl)-5-(3-carboxymethoxyphenyl)-2-(4-sulfophen 1)-2H-tetrazolium (PMS/MTS) as described in the CellTiter 96 AQueous Non-Radioactive Cell Proliferation Assay (Promega Inc.). Only viable cells reduce MTS to the soluble formazan, and viable cell numbers correlate with optical density (Cory et at., 1991).
# Cells were seeded at 2 to 4×10^4 cells/ml of growth medium in 24 well microtiter plates. Twenty-four hours post-plating cells were treated with vehicle alone (0.1% DMSO) or various concentrations of 15-deoxy-PG J2 was added to each well (quadruplicate samples per concentration) for an additional 4 days. At each time point 100 ul of the PMS/MTS assay mix is added and absorbance at 490 nm was recorded four hours later with a microplate spectrophotometer (BioTek Instrument Co).
# human keratinocytes [4] = test: Proliferation of adult human keratinocytes in culture (neutral red dye assay, 4 days); type: cell-based
# Description: The use of proliferating human keratinocytes in culture as a test system for determining the utility of a compound for treating hyperproliferative and inflammatory disorders of the skin is well documented (Kitanot et at., Euro. J Clin. Investig. 21:53-58 (1991) and West, et at., J. Investigative Derm. 99(1):95-100 (1992).)
# Cell number was assessed at time zero (before treatment) and at the end of the treatment period by the neutral red dye assay. See Kitano, et at., Euro. J. Clin. Investig. 21:53-58 (1991) and West, et at., J. Investigative Derm. 99(1):95-100 (1992). Each condition was performed in 12 replicates, on keratinocytes from three subjects and the results were combined from the three subjects. […] The coordinate plots the cell growth of the keratinocytes as the percentage of controls.
structure (smiles),measurement,setting,value
CC(C)(Oc1ccc(C2CC2(Cl)Cl)cc1)C(=O)O (stereo not shown) [ciprofibrate],activation of PPARγ (in words),PPARγ [1],known to activate PPARγ
"CCCCCC=CC=C1C(=O)C=CC1CC=CCCCC(=O)O (stereo not shown) [15-deoxy-PG J2, 15-deoxy-A-12,14-prostaglandin J2]",activation of PPARγ (in words),PPARγ [2],activate PPARγ to varying degrees
same,inhibition at 2 µM,"human keratinocytes [3]; Homo sapiens, Keratinocyte, 96 h, 2 uM, 4 days",22%
same,inhibition at 4 µM,"human keratinocytes [3]; Homo sapiens, Keratinocyte, 96 h, 4 uM, 4 days",51%
same,inhibition at 8 µM,"human keratinocytes [3]; Homo sapiens, Keratinocyte, 96 h, 8 uM, 4 days",76%
same,inhibition at 20 µM,"human keratinocytes [3]; Homo sapiens, Keratinocyte, 96 h, 20 uM, 4 days",100%
same,IC50,"human keratinocytes [3]; Keratinocyte, 96 h, human keratinocytes, 4 days treatment, read-out: concentration for half-maximal inhibition of growth (IC50)",~4 µM
same,% inhibition of proliferation of human keratinocytes,"human keratinocytes [3]; concentration not printed in the line (first line of Table 1), 4 days",5%
same,inhibition of proliferation of human keratinocytes (in words),"human keratinocytes [3]; cultured human keratinocytes, 4 days",inhibits the proliferation of human keratinocytes in culture; also recorded: dose-dependent inhibition of proliferation
CCOC(=O)C(C)(C)Oc1ccc(Cl)cc1 [clofibrate],activation of PPARγ (in words),PPARγ [1],known to activate PPARγ
Cc1c(C)c2c(c(C)c1O)CCC(C)(COc1ccc(CC3SC(=O)NC3=O)cc1)O2 (stereo not shown) [troglitazone],inhibition of keratinocyte proliferation (in words),"human keratinocytes [4]; 0.1, 1.0 and 10 μM, 4 days, compared with vehicle 0.1% DMSO",dose-dependent inhibition of keratinocyte proliferation; also recorded: dose-dependent and saturable; also recorded: dose response inhibition of cell growth
same,IC50,"human keratinocytes [4]; Homo sapiens, Keratinocyte, 96 h, read-out: IC50, antiproliferative effect in human keratinocytes",2100 nM
CC(C)(Oc1ccc(CCNC(=O)c2ccc(Cl)cc2)cc1)C(=O)O [bezofibrate],activation of PPARγ (in words),PPARγ [1],known to activate PPARγ
